Test results taken from the NIST ThermoML archive (doi:10.1021/acs.jced.8b00979).
Numbers after ± are expanded uncertainties.

Test: xn = mol fraction of the nth substance listed
Conditions: 100 kPa, Liquid; for viscosity: Capillary tube (Ostwald / Ubbelohde) method; for mass density: Vibrating tube method

For `CCC(C)CO` (stereo not given) [2-methyl-1-butanol] + CCCCCO, which viscosity (288.15 K, x2 = 0) is on record?
The viscosity was 6.439 ± 0.26 mPa·s.

And the viscosity (288.15 K, x2 = 0.1)?
Its viscosity is 6.245 ± 0.25 mPa·s.

And the viscosity (288.15 K, x2 = 0.2)?
The viscosity was 6.036 ± 0.24 mPa·s.

And the viscosity (288.15 K, x2 = 0.3)?
Its viscosity is 5.819 ± 0.23 mPa·s.

And the viscosity (288.15 K, x2 = 0.399)?
Its viscosity is 5.595 ± 0.23 mPa·s.

What about the viscosity (288.15 K, x2 = 0.5) of the same molecule?
Its viscosity is 5.361 ± 0.22 mPa·s.

And the viscosity (288.15 K, x2 = 0.6)?
The viscosity was 5.128 ± 0.21 mPa·s.

What about the viscosity (288.15 K, x2 = 0.699) of the same molecule?
The viscosity was 4.916 ± 0.2 mPa·s.

And the viscosity (288.15 K, x2 = 0.799)?
Its viscosity is 4.741 ± 0.19 mPa·s.

And the viscosity (288.15 K, x2 = 0.899)?
The viscosity was 4.697 ± 0.19 mPa·s.

And the mass density (288.15 K, x2 = 0)?
The mass density was 823.35 ± 0.8 kg/m3.

What about the mass density (288.15 K, x2 = 0.1) of the same molecule?
Its mass density is 822.86 ± 0.8 kg/m3.

What about the mass density (288.15 K, x2 = 0.2) of the same molecule?
Its mass density is 822.37 ± 0.8 kg/m3.

What about the mass density (288.15 K, x2 = 0.3) of the same molecule?
Its mass density is 821.88 ± 0.79 kg/m3.

And the mass density (288.15 K, x2 = 0.399)?
Its mass density is 821.4 ± 0.79 kg/m3.

And the mass density (288.15 K, x2 = 0.5)?
The mass density was 820.92 ± 0.79 kg/m3.

What about the mass density (288.15 K, x2 = 0.6) of the same molecule?
The mass density was 820.44 ± 0.79 kg/m3.

What about the mass density (288.15 K, x2 = 0.699) of the same molecule?
The mass density was 819.96 ± 0.79 kg/m3.

What about the mass density (288.15 K, x2 = 0.799) of the same molecule?
The mass density was 819.5 ± 0.79 kg/m3.

What about the mass density (288.15 K, x2 = 0.899) of the same molecule?
The mass density was 819.03 ± 0.79 kg/m3.

And the viscosity (293.15 K, x2 = 0)?
The viscosity was 5.3 ± 0.21 mPa·s.

What about the viscosity (293.15 K, x2 = 0.1) of the same molecule?
The viscosity was 5.146 ± 0.21 mPa·s.

What about the viscosity (293.15 K, x2 = 0.2) of the same molecule?
The viscosity was 4.998 ± 0.2 mPa·s.

And the viscosity (293.15 K, x2 = 0.3)?
Its viscosity is 4.837 ± 0.2 mPa·s.

And the viscosity (293.15 K, x2 = 0.399)?
The viscosity was 4.677 ± 0.19 mPa·s.

And the viscosity (293.15 K, x2 = 0.5)?
Its viscosity is 4.516 ± 0.18 mPa·s.

And the viscosity (293.15 K, x2 = 0.6)?
The viscosity was 4.362 ± 0.18 mPa·s.

What about the viscosity (293.15 K, x2 = 0.699) of the same molecule?
The viscosity was 4.196 ± 0.17 mPa·s.

What about the viscosity (293.15 K, x2 = 0.799) of the same molecule?
The viscosity was 4.062 ± 0.16 mPa·s.

What about the viscosity (293.15 K, x2 = 0.899) of the same molecule?
The viscosity was 4.046 ± 0.16 mPa·s.

And the mass density (293.15 K, x2 = 0)?
Its mass density is 819.64 ± 0.79 kg/m3.

And the mass density (293.15 K, x2 = 0.1)?
The mass density was 819.15 ± 0.79 kg/m3.

What about the mass density (293.15 K, x2 = 0.2) of the same molecule?
The mass density was 818.66 ± 0.79 kg/m3.

What about the mass density (293.15 K, x2 = 0.3) of the same molecule?
The mass density was 818.19 ± 0.79 kg/m3.

And the mass density (293.15 K, x2 = 0.399)?
The mass density was 817.71 ± 0.79 kg/m3.

What about the mass density (293.15 K, x2 = 0.5) of the same molecule?
The mass density was 817.24 ± 0.79 kg/m3.

What about the mass density (293.15 K, x2 = 0.6) of the same molecule?
The mass density was 816.77 ± 0.79 kg/m3.

And the mass density (293.15 K, x2 = 0.699)?
Its mass density is 816.3 ± 0.79 kg/m3.

And the mass density (293.15 K, x2 = 0.799)?
The mass density was 815.84 ± 0.79 kg/m3.

And the mass density (293.15 K, x2 = 0.899)?
Its mass density is 815.38 ± 0.79 kg/m3.

And the viscosity (298.15 K, x2 = 0)?
Its viscosity is 4.501 ± 0.18 mPa·s.

What about the viscosity (298.15 K, x2 = 0.1) of the same molecule?
Its viscosity is 4.383 ± 0.18 mPa·s.

And the viscosity (298.15 K, x2 = 0.2)?
Its viscosity is 4.255 ± 0.17 mPa·s.

And the viscosity (298.15 K, x2 = 0.3)?
Its viscosity is 4.129 ± 0.17 mPa·s.

What about the viscosity (298.15 K, x2 = 0.399) of the same molecule?
Its viscosity is 3.988 ± 0.16 mPa·s.

And the viscosity (298.15 K, x2 = 0.5)?
Its viscosity is 3.848 ± 0.15 mPa·s.

What about the viscosity (298.15 K, x2 = 0.6) of the same molecule?
Its viscosity is 3.72 ± 0.15 mPa·s.

What about the viscosity (298.15 K, x2 = 0.699) of the same molecule?
Its viscosity is 3.604 ± 0.15 mPa·s.

And the viscosity (298.15 K, x2 = 0.799)?
Its viscosity is 3.507 ± 0.14 mPa·s.

And the viscosity (298.15 K, x2 = 0.899)?
Its viscosity is 3.489 ± 0.14 mPa·s.

What about the mass density (298.15 K, x2 = 0) of the same molecule?
The mass density was 815.85 ± 0.79 kg/m3.

And the mass density (298.15 K, x2 = 0.1)?
Its mass density is 815.37 ± 0.79 kg/m3.

What about the mass density (298.15 K, x2 = 0.2) of the same molecule?
The mass density was 814.9 ± 0.79 kg/m3.

What about the mass density (298.15 K, x2 = 0.3) of the same molecule?
Its mass density is 814.43 ± 0.79 kg/m3.

And the mass density (298.15 K, x2 = 0.399)?
Its mass density is 813.97 ± 0.79 kg/m3.

What about the mass density (298.15 K, x2 = 0.5) of the same molecule?
The mass density was 813.51 ± 0.79 kg/m3.

What about the mass density (298.15 K, x2 = 0.6) of the same molecule?
The mass density was 813.05 ± 0.79 kg/m3.

And the mass density (298.15 K, x2 = 0.699)?
Its mass density is 812.6 ± 0.79 kg/m3.

And the mass density (298.15 K, x2 = 0.799)?
The mass density was 812.15 ± 0.79 kg/m3.

And the mass density (298.15 K, x2 = 0.899)?
Its mass density is 811.7 ± 0.79 kg/m3.

And the viscosity (303.15 K, x2 = 0)?
The viscosity was 3.825 ± 0.15 mPa·s.

What about the viscosity (303.15 K, x2 = 0.1) of the same molecule?
The viscosity was 3.725 ± 0.15 mPa·s.

What about the viscosity (303.15 K, x2 = 0.2) of the same molecule?
The viscosity was 3.63 ± 0.15 mPa·s.

And the viscosity (303.15 K, x2 = 0.3)?
Its viscosity is 3.518 ± 0.14 mPa·s.

What about the viscosity (303.15 K, x2 = 0.399) of the same molecule?
Its viscosity is 3.402 ± 0.14 mPa·s.

What about the viscosity (303.15 K, x2 = 0.5) of the same molecule?
The viscosity was 3.287 ± 0.13 mPa·s.

And the viscosity (303.15 K, x2 = 0.6)?
Its viscosity is 3.197 ± 0.13 mPa·s.

What about the viscosity (303.15 K, x2 = 0.699) of the same molecule?
The viscosity was 3.114 ± 0.13 mPa·s.

And the viscosity (303.15 K, x2 = 0.799)?
Its viscosity is 3.051 ± 0.12 mPa·s.

And the viscosity (303.15 K, x2 = 0.899)?
Its viscosity is 3.018 ± 0.12 mPa·s.

And the mass density (303.15 K, x2 = 0)?
The mass density was 812.12 ± 0.79 kg/m3.

And the mass density (303.15 K, x2 = 0.1)?
The mass density was 811.64 ± 0.79 kg/m3.

What about the mass density (303.15 K, x2 = 0.2) of the same molecule?
Its mass density is 811.17 ± 0.79 kg/m3.

And the mass density (303.15 K, x2 = 0.3)?
Its mass density is 810.71 ± 0.78 kg/m3.

And the mass density (303.15 K, x2 = 0.399)?
The mass density was 810.26 ± 0.78 kg/m3.

And the mass density (303.15 K, x2 = 0.5)?
Its mass density is 809.8 ± 0.78 kg/m3.

What about the mass density (303.15 K, x2 = 0.6) of the same molecule?
The mass density was 809.34 ± 0.78 kg/m3.

And the mass density (303.15 K, x2 = 0.699)?
Its mass density is 808.89 ± 0.78 kg/m3.

And the mass density (303.15 K, x2 = 0.799)?
The mass density was 808.45 ± 0.78 kg/m3.

And the mass density (303.15 K, x2 = 0.899)?
Its mass density is 808 ± 0.78 kg/m3.

And the viscosity (308.15 K, x2 = 0)?
The viscosity was 3.265 ± 0.13 mPa·s.

And the viscosity (308.15 K, x2 = 0.1)?
Its viscosity is 3.176 ± 0.13 mPa·s.

And the viscosity (308.15 K, x2 = 0.2)?
Its viscosity is 3.099 ± 0.12 mPa·s.

And the viscosity (308.15 K, x2 = 0.3)?
The viscosity was 3.007 ± 0.12 mPa·s.

And the viscosity (308.15 K, x2 = 0.399)?
Its viscosity is 2.921 ± 0.12 mPa·s.

What about the viscosity (308.15 K, x2 = 0.5) of the same molecule?
The viscosity was 2.831 ± 0.11 mPa·s.

And the viscosity (308.15 K, x2 = 0.6)?
The viscosity was 2.765 ± 0.11 mPa·s.

What about the viscosity (308.15 K, x2 = 0.699) of the same molecule?
The viscosity was 2.701 ± 0.11 mPa·s.

And the viscosity (308.15 K, x2 = 0.799)?
Its viscosity is 2.66 ± 0.11 mPa·s.

And the viscosity (308.15 K, x2 = 0.899)?
The viscosity was 2.648 ± 0.11 mPa·s.
